Measured values from ChEMBL document CHEMBL5143607, “Discovery and structure-activity relationships of a novel oxazolidinone class of bacterial type II topoisomerase inhibitors” (Bioorg Med Chem Lett, 2022).
≈ marks a conversion by molar mass, not a printed value.

System: Pseudomonas aeruginosa
Test: Antibacterial activity against Pseudomonas aeruginosa ATCC 27853 assessed as bacterial growth inhibition by CLSI protocol based assay
Type: functional
Conditions: not given

Row | Structure (SMILES) | MIC
1 | N#Cc1ccc2c(ccc(=O)n2CCN[C@H]2CC[C@H]3[C@H](C2)OC(=O)N3c2ccc3c(n2)NC(=O)CO3)c1 | > 64 µg/mL
2 | COc1ccc2ccc(=O)n(CCCN[C@H]3CC[C@H]4[C@H](C3)OC(=O)N4c3ccc4c(n3)NC(=O)CO4)c2n1 | 4 µg/mL (≈ 7.68 µM)
3 | COc1cnc2ccc(=O)n(CCN[C@H]3CC[C@H]4[C@H](C3)OC(=O)N4c3ccc4c(n3)NC(=O)CO4)c2n1 | 1 µg/mL (≈ 1.97 µM)
4 | O=C1COc2ccc(N3C(=O)O[C@H]4C[C@@H](NCCn5c(=O)cnc6ccc(F)cc65)CC[C@@H]43)nc2N1 | 4 µg/mL (≈ 8.09 µM)
5 | COc1ccc2ccc(=O)n(CCN[C@H]3CC[C@H]4[C@H](C3)OC(=O)N4c3ncc4c(n3)NC(=O)CO4)c2n1 | 8 µg/mL (≈ 15.8 µM)
6 | COc1ccc2ccc(=O)n(CCN[C@H]3CC[C@H]4[C@H](C3)OC(=O)N4c3ccc4c(n3)NC(=O)C(C)(C)O4)c2n1 | 32 µg/mL (≈ 59.9 µM)
7 | O=C1COc2ccc(N3C(=O)O[C@H]4C[C@@H](NCCn5c(=O)ccc6ccc(C(=O)O)cc65)CC[C@@H]43)nc2N1 | > 64 µg/mL

System: not listed separately
Test: Cytotoxicity against human HepG2 cells assessed as reduction in cell viability for 24 hrs by Celltiter-Glo assay
Type: toxicity, cell-based
Conditions: not given

Row | Structure (SMILES) | IC50 at 24 h
8 | O=C(O)c1cn(C2CC2)c2cc(N3CCNCC3)c(F)cc2c1=O [CIPROFLOXACIN] | > 128 µg/mL
9 | COc1ccc2ccc(=O)n(CCCN[C@H]3CC[C@H]4[C@H](C3)OC(=O)N4c3ccc4c(n3)NC(=O)CO4)c2n1 | 40 µg/mL (≈ 76.8 µM)
10 | COc1cnc2ccc(=O)n(CCN[C@H]3CC[C@H]4[C@H](C3)OC(=O)N4c3ccc4c(n3)NC(=O)CO4)c2n1 | > 128 µg/mL
11 | O=C1COc2ccc(N3C(=O)O[C@H]4C[C@@H](NCCn5c(=O)cnc6ccc(F)cc65)CC[C@@H]43)nc2N1 | > 64 µg/mL
12 | COc1ccc2ccc(=O)n(CCN[C@H]3CC[C@H]4[C@H](C3)OC(=O)N4c3ncc4c(n3)NC(=O)CO4)c2n1 | > 128 µg/mL

System: Acinetobacter baumannii
Test: Antibacterial activity against Acinetobacter baumannii NCTC 13420 assessed as bacterial growth inhibition by CLSI protocol based assay
Type: functional
Conditions: not given

Row | Structure (SMILES) | MIC
13 | N#Cc1ccc2c(ccc(=O)n2CCN[C@H]2CC[C@H]3[C@H](C2)OC(=O)N3c2ccc3c(n2)NC(=O)CO3)c1 | 8 µg/mL (≈ 16 µM)
14 | COc1ccc2ccc(=O)n(CCCN[C@H]3CC[C@H]4[C@H](C3)OC(=O)N4c3ccc4c(n3)NC(=O)CO4)c2n1 | 0.06 µg/mL (≈ 0.115 µM)
15 | COc1cnc2ccc(=O)n(CCN[C@H]3CC[C@H]4[C@H](C3)OC(=O)N4c3ccc4c(n3)NC(=O)CO4)c2n1 | 0.12 µg/mL (≈ 0.236 µM)
16 | O=C1COc2ccc(N3C(=O)O[C@H]4C[C@@H](NCCn5c(=O)cnc6ccc(F)cc65)CC[C@@H]43)nc2N1 | 0.03 µg/mL (≈ 0.0607 µM)
17 | COc1ccc2ccc(=O)n(CCN[C@H]3CC[C@H]4[C@H](C3)OC(=O)N4c3ncc4c(n3)NC(=O)CO4)c2n1 | 1 µg/mL (≈ 1.97 µM)
18 | COc1ccc2ccc(=O)n(CCN[C@H]3CC[C@H]4[C@H](C3)OC(=O)N4c3ccc4c(n3)NC(=O)C(C)(C)O4)c2n1 | 1 µg/mL (≈ 1.87 µM)
19 | O=C1COc2ccc(N3C(=O)O[C@H]4C[C@@H](NCCn5c(=O)ccc6ccc(C(=O)O)cc65)CC[C@@H]43)nc2N1 | > 64 µg/mL

Molecular target: Voltage-gated inwardly rectifying potassium channel KCNH2 (Homo sapiens, UniProt Q12809)
Test: Inhibition of human ERG by Ionworks electrophysiology assay
Type: toxicity
Conditions: not given

Chain of Voltage-gated inwardly rectifying potassium channel KCNH2 (Q12809 whole entry): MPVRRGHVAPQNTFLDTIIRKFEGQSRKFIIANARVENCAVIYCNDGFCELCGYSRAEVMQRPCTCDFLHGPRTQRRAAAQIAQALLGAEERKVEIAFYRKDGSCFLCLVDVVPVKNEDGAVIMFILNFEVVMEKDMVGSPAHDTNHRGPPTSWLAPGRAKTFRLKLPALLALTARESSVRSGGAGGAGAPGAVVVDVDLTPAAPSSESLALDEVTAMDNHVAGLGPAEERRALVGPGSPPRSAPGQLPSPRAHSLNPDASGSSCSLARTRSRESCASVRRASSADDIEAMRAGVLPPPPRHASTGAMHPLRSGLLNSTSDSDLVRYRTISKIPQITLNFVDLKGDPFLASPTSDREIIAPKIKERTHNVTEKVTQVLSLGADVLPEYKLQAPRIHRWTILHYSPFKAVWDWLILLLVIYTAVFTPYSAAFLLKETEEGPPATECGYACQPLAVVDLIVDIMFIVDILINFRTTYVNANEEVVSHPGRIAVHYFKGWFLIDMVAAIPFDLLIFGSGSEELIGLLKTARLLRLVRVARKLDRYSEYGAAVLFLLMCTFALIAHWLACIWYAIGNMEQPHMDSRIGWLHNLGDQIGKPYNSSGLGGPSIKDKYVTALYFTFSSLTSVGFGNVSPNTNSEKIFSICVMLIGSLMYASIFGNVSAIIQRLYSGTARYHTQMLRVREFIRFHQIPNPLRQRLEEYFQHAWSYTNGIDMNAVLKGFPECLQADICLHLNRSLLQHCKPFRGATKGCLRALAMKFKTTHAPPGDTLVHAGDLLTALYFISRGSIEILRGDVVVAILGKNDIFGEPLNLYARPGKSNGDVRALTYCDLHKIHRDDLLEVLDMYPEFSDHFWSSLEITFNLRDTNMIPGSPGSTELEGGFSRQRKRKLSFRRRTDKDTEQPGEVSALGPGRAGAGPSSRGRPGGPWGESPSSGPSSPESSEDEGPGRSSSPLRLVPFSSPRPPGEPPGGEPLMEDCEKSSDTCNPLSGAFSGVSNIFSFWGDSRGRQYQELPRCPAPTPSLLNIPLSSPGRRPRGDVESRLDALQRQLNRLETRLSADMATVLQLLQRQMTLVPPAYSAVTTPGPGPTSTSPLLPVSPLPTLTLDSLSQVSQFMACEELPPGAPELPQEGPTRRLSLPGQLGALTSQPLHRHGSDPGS

Row | Structure (SMILES) | IC50
20 | COc1cnc2ccc(=O)n(CCN[C@H]3CC[C@H]4[C@H](C3)OC(=O)N4c3ccc4c(n3)NC(=O)CO4)c2n1 | 9 µM
21 | COc1ccc2ccc(=O)n(CCN[C@H]3CC[C@H]4[C@H](C3)OC(=O)N4c3ncc4c(n3)NC(=O)CO4)c2n1 | > 32 µM

System: not listed separately
Test: Inhibition of Escherichia coli topoisomerase 4 assessed as reduction in decatenation
Conditions: not given

Row | Structure (SMILES) | IC50
22 | O=C(O)c1cn(C2CC2)c2cc(N3CCNCC3)c(F)cc2c1=O [CIPROFLOXACIN] | 0.03 µM

System: Escherichia coli
Test: Antibacterial activity against Escherichia coli W4573 assessed as bacterial growth inhibition by CLSI protocol based assay
Type: functional
Conditions: not given

Row | Structure (SMILES) | MIC
23 | N#Cc1ccc2c(ccc(=O)n2CCN[C@H]2CC[C@H]3[C@H](C2)OC(=O)N3c2ccc3c(n2)NC(=O)CO3)c1 | 4 µg/mL (≈ 7.99 µM)
24 | COc1ccc2ccc(=O)n(CCCN[C@H]3CC[C@H]4[C@H](C3)OC(=O)N4c3ccc4c(n3)NC(=O)CO4)c2n1 | 0.25 µg/mL (≈ 0.48 µM)
25 | COc1cnc2ccc(=O)n(CCN[C@H]3CC[C@H]4[C@H](C3)OC(=O)N4c3ccc4c(n3)NC(=O)CO4)c2n1 | 0.12 µg/mL (≈ 0.236 µM)
26 | O=C1COc2ccc(N3C(=O)O[C@H]4C[C@@H](NCCn5c(=O)cnc6ccc(F)cc65)CC[C@@H]43)nc2N1 | 0.25 µg/mL (≈ 0.506 µM)
27 | COc1ccc2ccc(=O)n(CCN[C@H]3CC[C@H]4[C@H](C3)OC(=O)N4c3ncc4c(n3)NC(=O)CO4)c2n1 | 0.5 µg/mL (≈ 0.985 µM)
28 | COc1ccc2ccc(=O)n(CCN[C@H]3CC[C@H]4[C@H](C3)OC(=O)N4c3ccc4c(n3)NC(=O)C(C)(C)O4)c2n1 | 2 µg/mL (≈ 3.74 µM)
29 | O=C1COc2ccc(N3C(=O)O[C@H]4C[C@@H](NCCn5c(=O)ccc6ccc(C(=O)O)cc65)CC[C@@H]43)nc2N1 | > 64 µg/mL

System: Klebsiella pneumoniae
Test: Antibacterial activity against Klebsiella pneumoniae ATCC 700603 assessed as bacterial growth inhibition by CLSI protocol based assay
Type: functional
Conditions: not given

Row | Structure (SMILES) | MIC
30 | N#Cc1ccc2c(ccc(=O)n2CCN[C@H]2CC[C@H]3[C@H](C2)OC(=O)N3c2ccc3c(n2)NC(=O)CO3)c1 | > 64 µg/mL
31 | COc1ccc2ccc(=O)n(CCCN[C@H]3CC[C@H]4[C@H](C3)OC(=O)N4c3ccc4c(n3)NC(=O)CO4)c2n1 | 8 µg/mL (≈ 15.4 µM)
32 | COc1cnc2ccc(=O)n(CCN[C@H]3CC[C@H]4[C@H](C3)OC(=O)N4c3ccc4c(n3)NC(=O)CO4)c2n1 | 2 µg/mL (≈ 3.94 µM)
33 | O=C1COc2ccc(N3C(=O)O[C@H]4C[C@@H](NCCn5c(=O)cnc6ccc(F)cc65)CC[C@@H]43)nc2N1 | 8 µg/mL (≈ 16.2 µM)
34 | COc1ccc2ccc(=O)n(CCN[C@H]3CC[C@H]4[C@H](C3)OC(=O)N4c3ncc4c(n3)NC(=O)CO4)c2n1 | 8 µg/mL (≈ 15.8 µM)
35 | COc1ccc2ccc(=O)n(CCN[C@H]3CC[C@H]4[C@H](C3)OC(=O)N4c3ccc4c(n3)NC(=O)C(C)(C)O4)c2n1 | 64 µg/mL (≈ 120 µM)
36 | O=C1COc2ccc(N3C(=O)O[C@H]4C[C@@H](NCCn5c(=O)ccc6ccc(C(=O)O)cc65)CC[C@@H]43)nc2N1 | > 64 µg/mL

Molecular target: hERG (KCNH2) (Homo sapiens, UniProt Q12809)
Test: Inhibition of human ERG at 100 uM by Ionworks electrophysiology assay
Type: toxicity
Conditions: not given

Chain of hERG (KCNH2) (Q12809 whole entry): as above

Row | Structure (SMILES) | inhibition at 100 µM
37 | N#Cc1ccc2c(ccc(=O)n2CCN[C@H]2CC[C@H]3[C@H](C2)OC(=O)N3c2ccc3c(n2)NC(=O)CO3)c1 | 56%
38 | COc1ccc2ccc(=O)n(CCCN[C@H]3CC[C@H]4[C@H](C3)OC(=O)N4c3ccc4c(n3)NC(=O)CO4)c2n1 | 97%
39 | O=C1COc2ccc(N3C(=O)O[C@H]4C[C@@H](NCCn5c(=O)cnc6ccc(F)cc65)CC[C@@H]43)nc2N1 | 33%
40 | O=C1COc2ccc(N3C(=O)O[C@H]4C[C@@H](NCCn5c(=O)ccc6ccc(C(=O)O)cc65)CC[C@@H]43)nc2N1 | 33%

System: Escherichia coli
Test: Antibacterial activity against Escherichia coli N43 assessed as bacterial growth inhibition by CLSI protocol based assay
Type: functional
Conditions: not given

Row | Structure (SMILES) | MIC
41 | N#Cc1ccc2c(ccc(=O)n2CCN[C@H]2CC[C@H]3[C@H](C2)OC(=O)N3c2ccc3c(n2)NC(=O)CO3)c1 | 0.06 µg/mL (≈ 0.12 µM)
42 | COc1ccc2ccc(=O)n(CCCN[C@H]3CC[C@H]4[C@H](C3)OC(=O)N4c3ccc4c(n3)NC(=O)CO4)c2n1 | ≤ 0.002 µg/mL
43 | COc1cnc2ccc(=O)n(CCN[C@H]3CC[C@H]4[C@H](C3)OC(=O)N4c3ccc4c(n3)NC(=O)CO4)c2n1 | 0.004 µg/mL (≈ 0.00788 µM)
44 | O=C1COc2ccc(N3C(=O)O[C@H]4C[C@@H](NCCn5c(=O)cnc6ccc(F)cc65)CC[C@@H]43)nc2N1 | ≤ 0.002 µg/mL
45 | COc1ccc2ccc(=O)n(CCN[C@H]3CC[C@H]4[C@H](C3)OC(=O)N4c3ncc4c(n3)NC(=O)CO4)c2n1 | 0.015 µg/mL (≈ 0.0296 µM)
46 | COc1ccc2ccc(=O)n(CCN[C@H]3CC[C@H]4[C@H](C3)OC(=O)N4c3ccc4c(n3)NC(=O)C(C)(C)O4)c2n1 | 0.03 µg/mL (≈ 0.0561 µM)
47 | O=C1COc2ccc(N3C(=O)O[C@H]4C[C@@H](NCCn5c(=O)ccc6ccc(C(=O)O)cc65)CC[C@@H]43)nc2N1 | 16 µg/mL (≈ 30.8 µM)

System: not listed separately
Test: Lipophilicity, logD of the compound by shake flask assay
Type: physicochemical
Conditions: octanol/water

Row | Structure (SMILES) | logD
48 | N#Cc1ccc2c(ccc(=O)n2CCN[C@H]2CC[C@H]3[C@H](C2)OC(=O)N3c2ccc3c(n2)NC(=O)CO3)c1 | 1.69
49 | COc1ccc2ccc(=O)n(CCCN[C@H]3CC[C@H]4[C@H](C3)OC(=O)N4c3ccc4c(n3)NC(=O)CO4)c2n1 | 1.61
50 | COc1cnc2ccc(=O)n(CCN[C@H]3CC[C@H]4[C@H](C3)OC(=O)N4c3ccc4c(n3)NC(=O)CO4)c2n1 | 1.37
51 | O=C1COc2ccc(N3C(=O)O[C@H]4C[C@@H](NCCn5c(=O)cnc6ccc(F)cc65)CC[C@@H]43)nc2N1 | 1.58
52 | COc1ccc2ccc(=O)n(CCN[C@H]3CC[C@H]4[C@H](C3)OC(=O)N4c3ncc4c(n3)NC(=O)CO4)c2n1 | 0.9
53 | COc1ccc2ccc(=O)n(CCN[C@H]3CC[C@H]4[C@H](C3)OC(=O)N4c3ccc4c(n3)NC(=O)C(C)(C)O4)c2n1 | 2.84
54 | O=C1COc2ccc(N3C(=O)O[C@H]4C[C@@H](NCCn5c(=O)ccc6ccc(C(=O)O)cc65)CC[C@@H]43)nc2N1 | < 0.2

System: Staphylococcus aureus
Test: Antibacterial activity against Staphylococcus aureus ATCC 29213 assessed as bacterial growth inhibition by CLSI protocol based assay
Type: functional
Conditions: not given

Row | Structure (SMILES) | MIC
55 | N#Cc1ccc2c(ccc(=O)n2CCN[C@H]2CC[C@H]3[C@H](C2)OC(=O)N3c2ccc3c(n2)NC(=O)CO3)c1 | 4 µg/mL (≈ 7.99 µM)
56 | COc1ccc2ccc(=O)n(CCCN[C@H]3CC[C@H]4[C@H](C3)OC(=O)N4c3ccc4c(n3)NC(=O)CO4)c2n1 | 0.015 µg/mL (≈ 0.0288 µM)
57 | COc1cnc2ccc(=O)n(CCN[C@H]3CC[C@H]4[C@H](C3)OC(=O)N4c3ccc4c(n3)NC(=O)CO4)c2n1 | 0.015 µg/mL (≈ 0.0296 µM)
58 | O=C1COc2ccc(N3C(=O)O[C@H]4C[C@@H](NCCn5c(=O)cnc6ccc(F)cc65)CC[C@@H]43)nc2N1 | 0.015 µg/mL (≈ 0.0303 µM)
59 | COc1ccc2ccc(=O)n(CCN[C@H]3CC[C@H]4[C@H](C3)OC(=O)N4c3ccc4c(n3)NC(=O)C(C)(C)O4)c2n1 | 0.03 µg/mL (≈ 0.0561 µM)
60 | O=C1COc2ccc(N3C(=O)O[C@H]4C[C@@H](NCCn5c(=O)ccc6ccc(C(=O)O)cc65)CC[C@@H]43)nc2N1 | > 64 µg/mL
